Drawing on patent US20250034170A1, “SMALL MOLECULE MODULATORS OF GLUCOCEREBROSIDASE ACTIVITY AND USES THEREOF” (Vanqua Bio, Inc., priority 2021, published 2025), this text covers EC50 for 54 molecules.

In this test the target is T1, GCase (Homo sapiens, UniProt P04062).
T1 construct: endogenous in cells; host or cells: HeLa cells
T1 sequence (P04062 40-536): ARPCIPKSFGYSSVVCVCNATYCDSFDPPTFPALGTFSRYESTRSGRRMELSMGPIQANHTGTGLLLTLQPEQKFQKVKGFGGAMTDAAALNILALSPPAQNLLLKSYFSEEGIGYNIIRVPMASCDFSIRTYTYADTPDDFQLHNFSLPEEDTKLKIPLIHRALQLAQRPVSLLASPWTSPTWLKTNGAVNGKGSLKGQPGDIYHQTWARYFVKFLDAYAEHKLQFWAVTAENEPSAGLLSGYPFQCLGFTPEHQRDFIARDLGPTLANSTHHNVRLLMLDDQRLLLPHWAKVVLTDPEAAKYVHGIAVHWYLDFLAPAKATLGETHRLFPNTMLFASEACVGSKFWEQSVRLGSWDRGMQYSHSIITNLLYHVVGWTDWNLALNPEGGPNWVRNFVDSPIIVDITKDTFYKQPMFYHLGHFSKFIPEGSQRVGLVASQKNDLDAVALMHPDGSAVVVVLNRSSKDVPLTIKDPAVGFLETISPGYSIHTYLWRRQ
Description: activation of GCase in a live cell PFB assay in HELA cells. In kind it is cell-based. As for the experimental part:
Exemplary compounds were evaluated for activation of GCase in a live cell PFB assay in HELA cells (essentially as described in Ysselstein et al., “LRRK2 kinase activity regulates lysosomal glucocerebrosidase in neurons derived from Parkinson's disease patients” Nature Communications (2019) 10:5570). […] EC50 ranges: A: <10 μM; B: >10-50 μM; C: >50-100 μM; D: >100 μM.

[1] abbreviates: activation of GCase, EC50 ranges.

Bounds are passed on as bounds.

A word on the EC50: it is the concentration at which the effect is half-maximal. Read a high EC50 as weaker potency.

In turn, `FC(F)c1ccnc(N2CCC3(CC2)CCN(c2cnc4cnn(CC(F)(F)F)c4n2)C3)c1` [Compound 162, 8-[4-(difluoromethyl)pyridin-2-yl]-2-[1-(2,2,2-trifluoroethyl)-1H-pyrazolo[3,4-b]pyrazin-6-yl]-2,8-diazaspiro[4.5]decane] showed an EC50 under setting [1] of under 10 µM.
`O=C1N(c2cccc(C(F)(F)F)n2)CCC12CCN(c1cnc3cnn(CC(F)F)c3n1)CC2` [Compound 102, 8-[1-(2,2-difluoroethyl)-1H-pyrazolo[3,4-b]pyrazin-6-yl]-2-[6-(trifluoromethyl)pyridin-2-yl]-2,8-diazaspiro[4.5]decan-1-one] displayed an EC50 under setting [1] of 10 to 50 µM.
On the same count and under the same terms, in the case of `CCc1ncc(N2CC3(CCN(c4cnc5cnn(CC(F)F)c5n4)C3)C2)cn1` [Cmpd 462] it was 10 to 50 µM; in that of `Fc1ccc(N2CCC3(CCN(c4cnc5cnn(CC(F)F)c5n4)CC3)C2)c(F)c1` [Cmpd 730], 10 to 50 µM.
The same measure, in the same setting: in the case of `FC(F)(F)c1ncc(N2CC3(CCN(c4cnc5cnn([C@H]6CCOC6)c5n4)C3)C2)cn1` [Cmpd 654] it was 10 to 50 µM.
In turn, `O=C1CC2(CN(c3ccnc(C(F)(F)F)c3)C2)CN1c1ncc2cnn(C3COC3)c2n1` [Cmpd 1008] gave an EC50 (EC50 given as range classes) of 10 to 50 µM.
Under setting [1], `Cc1nc(N2CC3(CCN(c4ncc5cnn(CC(F)(F)F)c5n4)C3)C2)cc(C(F)(F)F)n1` [Cmpd 500] displayed an EC50 of over 100 µM.
With `CCOc1nn(C2COC2)c2nc(N3CCC4(CN(c5ccnc(C(F)(F)F)c5)C4)C3)cnc12` [Cmpd 944], the EC50 under setting [1] was under 10 µM.
On the same count and under the same terms, next, `Cc1nn(C2COC2)c2nc(N3CCC4(CC3)CCN(c3ccc(C(F)(F)F)nc3)C4=O)cnc12` [Cmpd 885]: 10 to 50 µM; `Cc1nn(CC(F)F)c2nc(N3CCC4(CC3)CC(=O)N(c3cc(C(F)(F)F)ccn3)C4)ncc12` [Cmpd 302]: under 10 µM.
For the molecule `Cc1nn(CC(F)F)c2nc(N3CCC4(CC3)CC(=O)N(c3ccnc(C(F)(F)F)n3)C4)ncc12` [Cmpd 903], under setting [1], the EC50 was under 10 µM.
On to `Cc1nc(N2CCC3(C2)CN(c2ncc4c(C)nn(CC(F)(F)F)c4n2)C3)cc(C(F)(F)F)n1` [Cmpd 617], for which, where the note is “EC50 given as range classes”, the half-maximal effective concentration (EC50) is 10 to 50 µM.
The molecule `FC(F)Cn1ncc2ncc(N3CC4(CCCN(c5cccnc5C(F)(F)F)C4)C3)nc21` [Compound 9, 2-[1-(2,2-difluoroethyl)-1H-pyrazolo[3,4-b]pyrazin-6-yl]-6-[2-(trifluoromethyl)pyridin-3-yl]-2,6-diazaspiro[3.5]nonane] showed an EC50 under setting [1] of under 10 µM.
On to `Cc1nc(N2CCC3(CC2)CCN(c2cnc4cnn(CC(F)F)c4n2)C3)cc(C(F)(F)F)n1` [Cmpd 579], for which, for the setting “EC50 given as range classes”, the EC50 lay within 10 to 50 µM.
`FC(F)Cn1ncc2ncc(N3CCC4(CC3)CN(c3cnccc3C(F)(F)F)C4)nc21` [Compound 76, 7-[1-(2,2-difluoroethyl)-1H-pyrazolo[3,4-b]pyrazin-6-yl]-2-[4-(trifluoromethyl)pyridin-3-yl]-2,7-diazaspiro[3.5]nonane] gave an EC50 under setting [1] of under 10 µM.
Under setting [1], `FC(F)Cn1ncc2ncc(N3CCC4(CC3)CC(COc3ccc(C(F)(F)F)nc3)C4)nc21` [Cmpd 701] had a 50% effective concentration (EC50) of 10 to 50 µM.
For the molecule `Cc1ncc(N2CC3(CCN(c4ncc5c(C)nn(C6COC6)c5n4)C3)C2)c(C(F)(F)F)n1` [Cmpd 600], the EC50 (EC50 given as range classes) lay in the range of 50 to 100 µM.
As for `CCn1c(=O)n(CC(F)F)c2nc(N3CCC4(CN(c5cc(C(F)(F)F)nc(C)n5)C4)C3)cnc21` [Cmpd 1074], under setting [1], the EC50 was under 10 µM.
As for `Cc1nc(N2CCC3(CC2)CN(c2cnc4cnn(CC(F)(F)F)c4n2)C3)cc(C(F)(F)F)n1` [Cmpd 587], the EC50 (EC50 given as range classes) is 10 to 50 µM.
Still for that read-out and setting: in the case of `Cc1nn(CC(F)F)c2nc(N3CCC4(CC3)CCN(c3ccc(C(F)(F)F)nc3)C4=O)ncc12` [Cmpd 831] it was 10 to 50 µM.
With `Cc1nn(C2COC2)c2nc(N3CCC4(CC3)CCN(c3ccc(C(F)(F)F)nc3)C4=O)ncc12` [Cmpd 884], under setting [1], the EC50 lay within 10 to 50 µM.
Same read-out and setting: next, `CC1CC2(CCN(c3cnc4cnn(CC(F)F)c4n3)CC2)CN1c1cc(C(F)(F)F)ccn1` (stereo not drawn) [Cmpd 749]: 10 to 50 µM.
Turning to `FC(F)Cn1ncc2ncc(N3CCC4(CCCN(c5cc(C(F)(F)F)ccn5)C4)CC3)nc21` [Cmpd 224], the EC50 (EC50 given as range classes) is 10 to 50 µM.
Take `CC(c1ccc(C(F)(F)F)nc1)N1CC2(CCN(c3cnc4cnn(CC(F)F)c4n3)CC2)CC1=O` (stereo not drawn) [Cmpd 965]: the EC50 under setting [1] was in the range of 10 to 50 µM.
Take `O=C1CC2(CCN(c3cnc4cnn(CC(F)F)c4n3)C2)CN1c1ccc(C(F)(F)F)cn1` (stereo not drawn) [Cmpd 497]: the EC50 under setting [1] lay within 50 to 100 µM.
In the case of `FC(F)(F)c1cc(N2CC3(CCN(c4cnc5cnn(C6COC6)c5n4)C3)C2)ccn1` [Cmpd 987], where the note is “EC50 given as range classes”, the EC50 was over 100 µM.
Turning to `CC(c1ccnc(C(F)(F)F)c1)N1CC2(CCN(c3cnc4cnn(CC(F)F)c4n3)CC2)CC1=O` (stereo not drawn) [Cmpd 969], under setting [1], the EC50 is under 10 µM.
Still for that read-out and setting: next, `O=C1CC2(CCN(c3cnc4cnn(CC(F)F)c4n3)CC2)CN1Cc1cc(C(F)(F)F)ccn1` [Cmpd 359]: under 10 µM.
Under “EC50 given as range classes”, `FC(F)(F)c1cnc(N2CCC3(CCN(c4cncc(-c5nncs5)n4)CC3)C2)cn1` [Cmpd 824] showed an EC50 of 10 to 50 µM.
For `FC(F)(F)c1ccc(N2CCC3(CCN(c4cncc(N5CCOCC5)n4)CC3)C2)cn1` [Cmpd 249], the EC50 under setting [1] lay in the range of 10 to 50 µM.
Molecule `FC(F)Cn1ncc2ncc(N3CCC4(CCN(c5ccc(C(F)(F)F)nc5)CC4)C3)nc21` [Compound 152, 2-[1-(2,2-difluoroethyl)-1H-pyrazolo[3,4-b]pyrazin-6-yl]-8-[6-(trifluoromethyl)pyridin-3-yl]-2,8-diazaspiro[4.5]decane] yielded an EC50 under setting [1] of under 10 µM.
For the molecule `O=C1N(c2ccncc2C(F)(F)F)CCC12CCN(c1cnc3cnn(CC(F)F)c3n1)CC2` [Cmpd 677], the EC50 under setting [1] was 10 to 50 µM.
The same measure, in the same setting: next, `FC(F)Cn1ncc2ncc(N3CCC4(CN(c5ccc(C(F)(F)F)nn5)C4)C3)nc21` [Cmpd 440]: 50 to 100 µM.
As to `FC(F)(F)c1ccnc(N2CCC3(CCN(c4cncc(-c5nncs5)n4)CC3)C2)c1` [Compound 180, 8-[6-(1,3,4-thiadiazol-2-yl)pyrazin-2-yl]-2-[4-(trifluoromethyl)pyridin-2-yl]-2,8-diazaspiro[4.5]decane], the EC50 (EC50 given as range classes) was 10 to 50 µM.
Under setting [1], `O=C1N(c2cc(C(F)(F)F)ccn2)C(=O)C2(CCN(c3cnc4cnn(CC(F)F)c4n3)CC2)N1Cc1cc(F)ccc1F` [Cmpd 718] yielded an EC50 of under 10 µM.
Under setting [1], `Cc1nc(N2CCC3(C2)CN(c2ncc4c(C)nn(CC(F)F)c4n2)C3)cc(C(F)(F)F)n1` [Cmpd 577] had an EC50 of 10 to 50 µM.
The molecule `Cc1ncc(CN2CC3(CCN(c4cnc5cnn(CC(F)F)c5n4)CC3)CC2=O)s1` [Cmpd 423] came in with an EC50 (EC50 given as range classes) of 10 to 50 µM.
Molecule `O=C1CC2(CCN(c3cncc(-c4nncs4)n3)CC2)CN1c1cncc(C(F)(F)F)c1` [Cmpd 237] showed an EC50 under setting [1] of 10 to 50 µM.
Still for that read-out and setting: in the case of `CCc1nn(CC(F)F)c2nc(N3CCC4(CN(c5cc(C(F)(F)F)nc(C)n5)C4)C3)cnc12` [Cmpd 1064] it was 10 to 50 µM; in that of `FC(F)Cn1ncc2ncc(N3CCC4(CC3)CC(Oc3cccnc3C(F)(F)F)C4)nc21` [Compound 88, 7-[1-(2,2-difluoroethyl)-1H-pyrazolo[3,4-b]pyrazin-6-yl]-2-{[2-(trifluoromethyl)pyridin-3-yl]oxy}-7-azaspiro[3.5]nonane], under 10 µM.
Still for that read-out and setting: in the case of `O=C1CC2(CN1c1cc(C(F)(F)F)ccn1)C1CCC2CN(c2cnc3cnn(CC(F)F)c3n2)C1` (stereo not drawn) [Cmpd 724] it was 10 to 50 µM; in that of `Cc1cc(N2CC3(CCN(c4cnc5cnn(CC(F)F)c5n4)CC3)CC2=O)nc(C(F)(F)F)n1` [Cmpd 529], under 10 µM.
As for `O=C1CC2(CCN(c3cnc4cnn(CC(F)F)c4n3)C2)CCN1c1cncc(C(F)(F)F)c1` (stereo not drawn) [Cmpd 795], the EC50 (EC50 given as range classes) is under 10 µM.
For the molecule `Cc1ncc(N2CC3(CCN(c4cnc5cnn(C6COC6)c5n4)C3)C2)c(C(F)(F)F)n1` [Cmpd 597], the EC50 (EC50 given as range classes) was over 100 µM.
Under setting [1], `O=C1CC2(CN(c3cnc4cnn(CC(F)F)c4n3)C2)CN1c1ccnc(C(F)(F)F)c1` [Cmpd 338] showed an EC50 of 10 to 50 µM.
Same read-out and setting: next, `COCCN1C(=O)N(c2cc(C(F)(F)F)ccn2)C(=O)C12CCN(c1cnc3cnn(CC(F)F)c3n1)CC2` [Cmpd 713]: under 10 µM; `Cc1nc(N2CC3(CC(=O)N(c4cnc5cnn(CC(F)F)c5n4)C3)C2)cc(C(F)(F)F)n1` [Cmpd 525]: under 10 µM.
The same measure, in the same setting: in the case of `CCC1N(c2ccc(C(F)(F)F)nc2)C(=O)CC12CCN(c1cnc3cnn(CC(F)F)c3n1)CC2` (stereo not drawn) [Cmpd 852] it was 10 to 50 µM; in that of `CC[C@H]1N(c2ccnc(C(F)(F)F)c2)C(=O)CC12CCN(c1cnc3cnn(CC(F)F)c3n1)CC2` [Cmpd 854], 10 to 50 µM; in that of `FC(F)Cn1ncc2ncc(N3CC4(CCN(c5cncc(C(F)(F)F)n5)CC4)C3)nc21` [Cmpd 771], under 10 µM.
Where the note is “EC50 given as range classes”, `O=C1CCC2(CCN(c3cnc4cnn(CC(F)F)c4n3)C2)CN1c1ccc(C(F)(F)F)cn1` (stereo not drawn) [Cmpd 792] gave an EC50 of under 10 µM.
On the same count and under the same terms, next, `Cc1cc(C(F)(F)F)ncc1N1CC2(CCN(c3cnc4cnn(CC(F)F)c4n3)CC2)CC1=O` [Cmpd 778]: under 10 µM.
Molecule `Cc1nc(N2CC3(CCN(c4cnc5cnn(CC(F)F)c5n4)CC3)CC2=O)cc(C(F)(F)F)n1` [Cmpd 513] came in with an EC50 under setting [1] of 10 to 50 µM.
In the case of `FC(F)Cn1ncc2ncc(N[C@H]3CC[C@@]4(CCN(c5cc(C(F)(F)F)ccn5)C4)CC3)nc21` [Cmpd 197], the EC50 (EC50 given as range classes) was 10 to 50 µM.
